Test results reported in ChEMBL document CHEMBL1148150, “New cytotoxic furanosesterterpenes from an Okinawan marine sponge, Ircinia sp” (J Nat Prod, 2003).

The molecules below were run on KB (assay: Cytotoxicity against human KB cells).
Type: functional, cell-based

| SMILES | IC50 |
| --- | --- |
| CCC(O)C(=O)C[C@@H](C)CCC/C(C)=C\C=C\[C@]1(C)CCCc2ccoc21 (stereo not given in full) | < 1 mg/L |
| C/C(=C/C=C/[C@]1(C)CCCc2ccoc21)CCC[C@H](C)CC(=O)[C@@H](O)[C@H](C)Cl | < 1 mg/L |
| CC1=C(O)/C(=C/[C@@H](C)CCC/C(C)=C/C=C/[C@]2(C)CCCc3ccoc32)OC1=O | ≥ 1 mg/L |
| CC1=C(O)/C(=C/[C@@H](C)CCC/C(C)=C\C=C\[C@]2(C)CCCc3ccoc32)OC1=O | ≥ 1 mg/L |
| C/C(=C/C=C/[C@]1(C)CCCc2ccoc21)CCC[C@H](C)CC(=O)[C@H](O)[C@H](C)Cl | < 1 mg/L |
